Assay results taken from patent publication US12391660B2, “Heteroaromatic acetamide derivative, and preparation and use thereof” (Hangzhou Westan Pharmaceutical Technology Co., Ltd, priority 2019, dated 2025).

Experiments:
[1] = molecular target: human TRPC6 (Homo sapiens (Human), UniProt Q9Y210); experiment: Inhibitory activity on human TRPC6 by conventional patch clamp assay; type: cell-based; details: HEK293 human TRPC6, read-out: TRPC6 Inhibition rate (5 μM)
Procedure: 3. Inhibitory Activity on Human TRPC6 by Conventional Patch Clamp Assay
In order to test the selectivity of the compounds in TRPA1 inhibition, a conventional patch clamp method was used to further measure the inhibitory activity of compounds on TRPC6. The principle and procedures of the conventional patch clamp assay could be found in the literature report of Ambrus et al [Ambrus et al. J Cell and Mol Med 2015, 19 (12):2771-9].
Evaluation of TRPC6 inhibitory activity of compounds was conducted using the HEK293 recombinant cell strain (Creative Biogene, NY) stably expressing human TRPC6. Cells were cultured in a DMEM/F12 (3:1, Thermo Fisher Scientific) medium (containing 5% calf serum, 2 mM glutamine and 20 mM HEPES) in an incubator at 37° C. and air humidity containing 5% CO2.
During the experiment, the adherent cells were placed in a recording room under the inverted microscope. All experiments were performed at room temperature. Each cell itself was used as a control thereof.
Test compounds at a final concentration were all prepared on the testing day and then dissolved in the extracellular fluid. The extracellular fluid was (mM): NaCl, 137; KCl, 4; CaCl2, 1.8; MgCl2, 1; HEPES, 10; glucose 10; pH 7.4 (NaOH titration). Low-Ca extracellular fluid was (mM): NaCl, 138.3; KCl, 4; CaCl2, 0.5; MgCl2, 1; HEPES, 10; glucose 10; pH 7.4 (NaOH titration). […]

[2] = molecular target: human TRPA1 (Homo sapiens (Human), UniProt O75762); experiment: FLIPR assay of inhibitory activity on human TRPA1 (calcium ion flux fluorescence); type: cell-based; details: HEK293 cells stably expressing human TRPA1
In short: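 Tetracycline-induced (0.1 μg/ml) HEK293 cells stably expressing human TRPA1, loaded with 5 μM Fluo-4 AM for 1 h at 37° C. Compounds added in 1:5 dilutions from 30 μM (9 points, duplicate), then 3 mM CaCl2 after 10 min; fluorescence peak at 538 nm gave IC50.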

Sequence of human TRPA1 (O75762 whole entry): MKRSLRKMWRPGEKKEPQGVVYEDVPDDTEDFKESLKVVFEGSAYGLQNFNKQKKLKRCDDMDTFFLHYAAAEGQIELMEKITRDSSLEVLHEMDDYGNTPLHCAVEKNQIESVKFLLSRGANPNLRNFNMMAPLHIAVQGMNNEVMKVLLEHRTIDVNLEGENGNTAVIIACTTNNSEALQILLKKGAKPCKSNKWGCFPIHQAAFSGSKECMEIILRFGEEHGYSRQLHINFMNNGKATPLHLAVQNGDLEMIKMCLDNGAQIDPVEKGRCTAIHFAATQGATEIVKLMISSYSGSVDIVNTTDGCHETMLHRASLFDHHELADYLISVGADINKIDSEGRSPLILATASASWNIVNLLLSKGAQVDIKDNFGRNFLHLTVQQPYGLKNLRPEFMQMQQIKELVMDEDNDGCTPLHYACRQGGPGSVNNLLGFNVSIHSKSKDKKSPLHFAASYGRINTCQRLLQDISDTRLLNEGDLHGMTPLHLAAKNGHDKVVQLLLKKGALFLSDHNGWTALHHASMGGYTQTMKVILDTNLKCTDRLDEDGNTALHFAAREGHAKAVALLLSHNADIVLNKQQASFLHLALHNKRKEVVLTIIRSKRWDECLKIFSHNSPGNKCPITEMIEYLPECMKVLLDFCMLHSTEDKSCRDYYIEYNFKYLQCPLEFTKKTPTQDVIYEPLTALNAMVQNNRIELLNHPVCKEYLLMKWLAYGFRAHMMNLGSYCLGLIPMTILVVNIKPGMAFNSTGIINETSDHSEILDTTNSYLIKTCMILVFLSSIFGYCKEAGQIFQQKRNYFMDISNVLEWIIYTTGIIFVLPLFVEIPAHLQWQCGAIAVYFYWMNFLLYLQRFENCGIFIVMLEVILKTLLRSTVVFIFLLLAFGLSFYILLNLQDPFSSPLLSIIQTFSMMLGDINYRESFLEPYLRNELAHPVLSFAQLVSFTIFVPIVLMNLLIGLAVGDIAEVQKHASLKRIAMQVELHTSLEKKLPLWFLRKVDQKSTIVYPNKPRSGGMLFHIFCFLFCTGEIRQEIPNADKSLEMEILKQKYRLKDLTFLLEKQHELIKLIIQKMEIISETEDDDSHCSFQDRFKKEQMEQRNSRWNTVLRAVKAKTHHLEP
Sequence of human TRPC6 (Q9Y210 whole entry): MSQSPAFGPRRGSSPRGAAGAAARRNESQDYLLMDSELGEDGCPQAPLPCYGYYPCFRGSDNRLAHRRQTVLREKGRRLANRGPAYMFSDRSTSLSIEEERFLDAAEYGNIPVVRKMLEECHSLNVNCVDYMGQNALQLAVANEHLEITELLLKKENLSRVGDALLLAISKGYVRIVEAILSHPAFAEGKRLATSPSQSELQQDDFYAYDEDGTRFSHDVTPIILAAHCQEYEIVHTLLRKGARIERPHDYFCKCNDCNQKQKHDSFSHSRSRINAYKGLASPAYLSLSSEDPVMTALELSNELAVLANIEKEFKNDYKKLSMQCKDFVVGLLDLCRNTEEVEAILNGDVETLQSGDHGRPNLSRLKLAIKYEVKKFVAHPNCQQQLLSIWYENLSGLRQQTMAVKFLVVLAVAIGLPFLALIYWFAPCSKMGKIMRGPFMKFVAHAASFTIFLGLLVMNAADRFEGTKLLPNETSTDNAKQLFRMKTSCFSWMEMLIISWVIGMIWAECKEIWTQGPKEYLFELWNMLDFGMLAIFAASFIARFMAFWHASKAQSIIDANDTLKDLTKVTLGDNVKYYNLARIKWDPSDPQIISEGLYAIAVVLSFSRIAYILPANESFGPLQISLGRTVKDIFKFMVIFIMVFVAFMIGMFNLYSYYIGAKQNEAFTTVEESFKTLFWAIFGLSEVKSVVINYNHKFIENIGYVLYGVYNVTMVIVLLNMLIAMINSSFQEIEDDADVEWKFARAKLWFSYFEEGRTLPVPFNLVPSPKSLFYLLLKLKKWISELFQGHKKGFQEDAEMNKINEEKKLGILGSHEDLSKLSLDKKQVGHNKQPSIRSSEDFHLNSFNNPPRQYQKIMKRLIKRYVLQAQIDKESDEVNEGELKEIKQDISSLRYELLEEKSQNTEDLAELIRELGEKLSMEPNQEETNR

Compound	inhibition at 5 µM [1]	IC50 [2]
N#Cc1ccc(NC2(C(=O)N3CCN(c4ccc(C(F)(F)F)cc4)CC3)CCCC2)cc1 [Compound 1, 4-((1-(4-(4-(trifluoromethyl)phenyl)piperazine-1-carbonyl)cyclopentyl)amino)benzonitrile]	-60%	0.04 µM
CC(C)(C)C1CCN(C(=O)C2(Nc3ccc(C#N)cc3)CCCC2)CC1 [Compound 31, 4-((1-(4-(tert-butyl)piperidine-1-carbonyl)cyclopentyl)amino)benzonitrile]	26%	0.087 µM
